From patent publication US11912701B2, “Protein kinase inhibitors for promoting liver regeneration or reducing or preventing hepatocyte death” (HEPAREGENIX GMBH, priority 2018, dated 2024)

Key:
JNK1 [1] = molecular target: T1, JNK1 (Homo sapiens, UniProt P45983); assay: KINOMEscan competition binding assay, JNK1; set-up: M1/Q384; host or cells: HEK-293; settings: ratio PoC (off-target)/PoC (MKK4)
Description: (§1) The assay was performed by combining three components: DNA-tagged kinase; immobilized ligand; and a test compound. The ability of the test compound to compete with the immobilized ligand was measured via quantitative PCR of the DNA tag. The technology is described in detail in Fabian, M. A. et al. A small molecule-kinase interaction map for clinical kinase inhibitors. Nat. […] Nat.
(§2) For investigation of the affinity to MKK4, BRaf, MKK7 and JNK1, the kinases were produced in HEK-293 cells and subsequently tagged with DNA for qPCR detection. […] The liganded beads were blocked with excess biotin and washed with blocking buffer (SEABLOCK™ (Pierce), 1% BSA, 0.05% TWEEN®20, 1 mM DTT) to remove unbound ligand and to reduce nonspecific binding. […] All reactions were performed in polystyrene 96-well plates in a final volume of 0.135 mL. […] The kinase concentration in the eluates was measured by qPCR.
(§3) The test compounds were provided as 10 mM stock solutions. The test solutions at indicated final concentrations were prepared at DiscoverX.
(§4) Potency of representative examples against the protein kinases MKK4, BRaf, MKK7 and JNK1 expressed as residual percent of control binding (PoC), was determined at a concentration of 100 nM. The determined potencies are categorized as follows:
(§5) The binding selectivity of representative examples against the protein kinases BRaf, MKK7 and JNK1, altogether denominated as “off-targets” is determined by the ratios of PoC (off-target)/PoC (MKK4).
Target sequence in this assay (P45983 1-384 isoform P45983-2): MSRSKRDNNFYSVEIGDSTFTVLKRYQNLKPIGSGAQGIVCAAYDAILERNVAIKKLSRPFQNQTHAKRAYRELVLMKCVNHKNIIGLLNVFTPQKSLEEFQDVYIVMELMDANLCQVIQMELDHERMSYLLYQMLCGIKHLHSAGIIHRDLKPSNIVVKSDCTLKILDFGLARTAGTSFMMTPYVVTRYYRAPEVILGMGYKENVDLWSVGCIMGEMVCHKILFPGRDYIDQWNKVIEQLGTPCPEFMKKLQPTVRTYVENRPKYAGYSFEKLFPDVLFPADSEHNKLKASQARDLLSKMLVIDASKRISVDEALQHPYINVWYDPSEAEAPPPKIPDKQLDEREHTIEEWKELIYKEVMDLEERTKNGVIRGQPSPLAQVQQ

MKK7 [2] = molecular target: T2, MKK7 (Homo sapiens, UniProt O14733); assay: KINOMEscan competition binding assay, MKK7; set-up: M1/R419; host or cells: HEK-293; settings: ratio PoC (off-target)/PoC (MKK4)
T2 sequence (O14733 1-419): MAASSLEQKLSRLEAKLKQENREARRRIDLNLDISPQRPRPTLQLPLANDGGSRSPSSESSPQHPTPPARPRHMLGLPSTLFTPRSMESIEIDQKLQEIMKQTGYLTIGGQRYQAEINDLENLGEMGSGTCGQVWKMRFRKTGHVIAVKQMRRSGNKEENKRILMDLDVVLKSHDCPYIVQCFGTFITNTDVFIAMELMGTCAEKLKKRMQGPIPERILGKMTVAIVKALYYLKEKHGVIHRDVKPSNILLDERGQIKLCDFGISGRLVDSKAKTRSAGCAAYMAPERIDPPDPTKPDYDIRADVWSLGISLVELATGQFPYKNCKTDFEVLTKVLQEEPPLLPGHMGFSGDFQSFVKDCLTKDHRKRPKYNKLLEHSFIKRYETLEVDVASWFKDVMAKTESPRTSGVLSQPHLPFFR
Description: as §1, §2, §3, §4, §5

BRaf [3] = molecular target: T3, BRaf (Homo sapiens, UniProt P15056); assay: KINOMEscan competition binding assay, BRaf; settings: ratio PoC (off-target)/PoC (MKK4)
T3 construct: purchased ProQinase GmbH, Freiburg, Germany (33PanQinase Assay Service)
Description: as §1, §2, §3, §4, §5

MKK4 [4] = molecular target: T4, MKK4 (Homo sapiens, UniProt P45985); assay: KINOMEscan competition binding assay, MKK4; settings: residual percent of control binding (PoC) at 100 nM
T4 construct: S84/D399; host or cells: HEK-293
T4 sequence (P45985 84-399): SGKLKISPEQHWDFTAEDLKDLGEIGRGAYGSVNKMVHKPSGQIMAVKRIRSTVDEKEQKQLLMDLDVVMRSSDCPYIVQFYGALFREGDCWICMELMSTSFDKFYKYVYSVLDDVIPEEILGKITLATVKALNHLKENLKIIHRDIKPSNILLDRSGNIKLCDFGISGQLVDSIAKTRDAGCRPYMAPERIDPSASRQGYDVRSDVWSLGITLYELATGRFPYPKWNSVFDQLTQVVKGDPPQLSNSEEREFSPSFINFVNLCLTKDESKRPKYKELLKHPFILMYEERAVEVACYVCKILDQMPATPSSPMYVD
Description: as §1, §2, §3
Potency of representative examples against the protein kinases MKK4, BRaf, MKK7 and JNK1 expressed as residual percent of control binding (PoC), was determined at a concentration of 100 nM. The determined potencies are categorized as follows: […]

MKK7 [5] = molecular target: T2, MKK7; assay: 33PanQinase enzyme assay, MKK7; format: biochemical; set-up: purchased ProQinase GmbH, Freiburg, Germany (33PanQinase Assay Service); settings: ratio IC50(MKK7)/IC50(MKK4)
In short: (§6)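 Off-target selectivity is the ratio IC50(off-target)/IC50(MKK4), with IC50 values from least-squares fitting and single-point data as % residual activity. Reactions of enzyme/substrate mix, ATP and compound ran 60 min at 30° C before H3PO4 stop; ^33P incorporation read on a scintillation counter.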

JNK1 [6] = molecular target: T1, JNK1; assay: 33PanQinase enzyme assay, JNK1; format: biochemical; set-up: purchased ProQinase GmbH, Freiburg, Germany (33PanQinase Assay Service); settings: ratio IC50(JNK1)/IC50(MKK4)
In short: as §6
Target sequence in this assay (P45983 whole entry): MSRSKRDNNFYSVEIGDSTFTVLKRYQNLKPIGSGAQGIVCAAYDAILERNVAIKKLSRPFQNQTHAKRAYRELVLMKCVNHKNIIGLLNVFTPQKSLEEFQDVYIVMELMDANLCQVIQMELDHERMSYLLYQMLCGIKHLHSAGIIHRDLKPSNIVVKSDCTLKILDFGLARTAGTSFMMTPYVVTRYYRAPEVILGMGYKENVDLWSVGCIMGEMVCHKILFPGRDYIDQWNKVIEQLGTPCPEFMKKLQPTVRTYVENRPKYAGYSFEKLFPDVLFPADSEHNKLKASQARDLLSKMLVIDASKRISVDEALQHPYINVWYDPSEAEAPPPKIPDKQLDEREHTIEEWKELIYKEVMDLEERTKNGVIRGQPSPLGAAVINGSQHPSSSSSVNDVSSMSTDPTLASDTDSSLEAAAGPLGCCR

BRaf [7] = molecular target: T3, BRaf; assay: 33PanQinase enzyme assay, BRaf; format: biochemical; settings: ratio IC50(BRaf)/IC50(MKK4)
In short: as §6

MKK4 [8] = molecular target: T5, MKK4 (Homo sapiens, UniProt P45985); assay: 33PanQinase enzyme assay, MKK4; format: biochemical; settings: assay 'IC50'; read-out: Potency MKK4 (IC50)
T5 construct: purchased ProQinase GmbH, Freiburg, Germany (33PanQinase Assay Service)
T5 sequence (P45985 1-399): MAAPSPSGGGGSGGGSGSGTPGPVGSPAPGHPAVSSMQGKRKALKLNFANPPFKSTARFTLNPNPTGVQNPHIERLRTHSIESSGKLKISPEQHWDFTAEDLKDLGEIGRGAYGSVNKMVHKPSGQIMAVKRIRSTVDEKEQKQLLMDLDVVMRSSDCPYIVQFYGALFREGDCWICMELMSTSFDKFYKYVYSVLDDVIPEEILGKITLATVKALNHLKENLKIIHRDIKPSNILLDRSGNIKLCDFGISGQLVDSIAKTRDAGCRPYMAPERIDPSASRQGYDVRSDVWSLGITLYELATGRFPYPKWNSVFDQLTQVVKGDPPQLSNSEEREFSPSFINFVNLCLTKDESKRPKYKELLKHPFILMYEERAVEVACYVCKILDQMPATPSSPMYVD
In short: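 Inhibition measured as 33Pi transfer to substrate after a 60-min, 30 °C reaction, acid-stopped and scintillation-counted.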

T3 sequence (P15056 whole entry, species assumed): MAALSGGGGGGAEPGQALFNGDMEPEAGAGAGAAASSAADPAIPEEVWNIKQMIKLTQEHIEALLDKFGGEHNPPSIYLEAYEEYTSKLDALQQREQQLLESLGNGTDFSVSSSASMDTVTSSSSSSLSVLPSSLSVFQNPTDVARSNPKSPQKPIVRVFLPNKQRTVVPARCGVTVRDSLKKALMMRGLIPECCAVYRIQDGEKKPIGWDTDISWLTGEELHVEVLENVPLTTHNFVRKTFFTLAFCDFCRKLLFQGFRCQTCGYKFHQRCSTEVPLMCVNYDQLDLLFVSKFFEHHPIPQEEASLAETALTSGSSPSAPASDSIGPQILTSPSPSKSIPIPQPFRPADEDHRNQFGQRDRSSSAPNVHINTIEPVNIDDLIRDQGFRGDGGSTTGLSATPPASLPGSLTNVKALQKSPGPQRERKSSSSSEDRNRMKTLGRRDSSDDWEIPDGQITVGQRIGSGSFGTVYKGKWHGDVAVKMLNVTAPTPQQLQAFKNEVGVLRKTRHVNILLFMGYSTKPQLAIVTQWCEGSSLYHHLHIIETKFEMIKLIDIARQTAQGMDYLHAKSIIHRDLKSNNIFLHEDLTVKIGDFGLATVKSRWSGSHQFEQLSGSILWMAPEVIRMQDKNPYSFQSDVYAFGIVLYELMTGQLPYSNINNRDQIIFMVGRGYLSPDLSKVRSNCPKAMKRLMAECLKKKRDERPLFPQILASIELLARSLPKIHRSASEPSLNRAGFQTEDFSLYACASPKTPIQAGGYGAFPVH

SMILES	selectivity based on % Ctrl @100 nM vs. JNK1 (JNK1 [1])	selectivity based on % Ctrl @100 nM vs. MKK7 (MKK7 [2])	selectivity based on % Ctrl @100 nM vs. Braf (BRaf [3])	MKK4 [% Ctrl @ 100 nM (MKK4 [4])	Selectivity IVIKK7, IC50(off-target)/IC50(MKK4) (MKK7 [5])	Selectivity JNK1, IC50(off-target)/IC50(MKK4) (JNK1 [6])	Selectivity Braf, IC50(off-target)/IC50(MKK4) (BRaf [7])	IC50 (MKK4 [8]) [nM]
C#Cc1cnc2[nH]cc(C(=O)c3c(F)ccc(NS(=O)(=O)CCC)c3F)c2c1 [Example 18, N-(3-(5-ethynyl-1H-pyrrolo[2,3-b]pyridine-3-carbonyl)-2,4-difluorophenyl) propane-1-sulfonamide]	+ (10 ≥ ratio > 3)	+ (10 ≥ ratio > 3)	◯ (3 ≥ Ratio)	+ (3 ≤ PoC < 30)				
CCCCS(=O)(=O)Nc1ccc(F)c(C(=O)c2c[nH]c3ncc(-c4ccc(OC)cc4Cl)cc23)c1F [Example 21, N-(3-(5-(2-chloro-4-methoxyphenyl)-1H-pyrrolo[2,3-b]pyridine-3-carbonyl)-2,4-difluorophenyl)butane-1-sulfonamide]	++ (100 ≥ ratio > 10)	++ (100 ≥ ratio > 10)	++ (100 ≥ ratio > 10)	++ (1 ≤ PoC < 3)				
CCCS(=O)(=O)Nc1ccc(F)c(C(=O)c2c[nH]c3ncc(-c4ccc(OCC5COC(C)(C)O5)cc4Cl)cc23)c1F (stereo not drawn) [Example 25, N-(3-(5-(2-chloro-4-((2,2-dimethyl-1,3-dioxolan-4-yl)methoxy)phenyl)-1H-pyrrolo[2,3-b]pyridine-3-carbonyl)-2,4-difluorophenyl)propane-1-sulfonamide]	+ (10 ≥ ratio > 3)	+ (10 ≥ ratio > 3)	◯ (3 ≥ Ratio)	+ (3 ≤ PoC < 30)				
CCCS(=O)(=O)Nc1ccc(F)c(C(=O)c2c[nH]c3ncc(-c4ccc(OCC5COC(C)(C)O5)cc4)cc23)c1F (stereo not drawn) [Example 29, N-(3-(5-(4-((2,2-dimethyl-1,3-dioxolan-4-yl)methoxy)phenyl)-1H-pyrrolo[2,3-b]pyridine-3-carbonyl)-2,4-difluorophenyl)propane-1-sulfonamide]	++ (100 ≥ ratio > 10)	++ (100 ≥ ratio > 10)	◯ (3 ≥ Ratio)	+ (3 ≤ PoC < 30)				
CCCS(=O)(=O)Nc1ccc(F)c(C(=O)c2c[nH]c3ncc(-c4cccc(C(F)(F)F)c4)cc23)c1F [Example 117, N-(2,4-difluoro-3-(5-(3-(trifluoromethyl)phenyl)-1H-pyrrolo[2,3-b]pyridine-3-carbonyl)phenyl)propane-1-sulfonamide]					+++ (IC50(off-target)/IC50(MKK4) > 100)	◯ (3 ≥ IC50(off-target)/IC50(MKK4))	◯ (3 ≥ IC50(off-target)/IC50(MKK4))	1000 to 10000
Cc1ncc(-c2cnc3[nH]cc(C(=O)c4ccc(F)c(NS(=O)(=O)CCC(F)(F)F)c4F)c3c2)cn1 [Example 147, N-(2,6-difluoro-3-(5-(2-methylpyrimidin-5-yl)-1H-pyrrolo[2,3-b]pyridine-3-carbonyl)phenyl)-3,3,3-trifluoropropane-1-sulfonamide]					+++ (IC50(off-target)/IC50(MKK4) > 100)	+++ (IC50(off-target)/IC50(MKK4) > 100)	++ (100 ≥ IC50(off-target)/IC50(MKK4) > 10)	< 100
CCCS(=O)(=O)Nc1c(F)ccc(C(=O)c2c[nH]c3ncc(-c4ccc(O)cc4Cl)cc23)c1F [Example 152, N-(3-(5-(2-chloro-4-hydroxyphenyl)-1H-pyrrolo[2,3-b]pyridine-3-carbonyl)-2,6-difluorophenyl)propane-1-sulfonamide]					+++ (IC50(off-target)/IC50(MKK4) > 100)	++ (100 ≥ IC50(off-target)/IC50(MKK4) > 10)	+++ (IC50(off-target)/IC50(MKK4) > 100)	< 100
CCCS(=O)(=O)Nc1ccc(F)c(C(=O)c2c[nH]c3ncc(-c4cccc(F)c4)cc23)c1F [Example 115, N-(2,4-difluoro-3-(5-(3-fluorophenyl)-1H-pyrrolo[2,3-b]pyridine-3-carbonyl)phenyl)propane-1-sulfonamide]					+++ (IC50(off-target)/IC50(MKK4) > 100)	+ (10 ≥ IC50(off-target)/IC50(MKK4) > 3)	◯ (3 ≥ IC50(off-target)/IC50(MKK4))	100 to 1000
O=C(c1cccc(NS(=O)(=O)Cc2ccccc2)c1F)c1c[nH]c2ncc(-c3cc4c(cc3Cl)OCCO4)cc12 [Example 127, N-(3-(5-(7-chloro-2,3-dihydrobenzo[b][1,4]dioxin-6-yl)-1H-pyrrolo[2,3-b]pyridine-3-carbonyl)-2-fluorophenyl)-1-phenylmethanesulfonamide]				++ (1 ≤ PoC < 3)				100 to 1000
CCCS(=O)(=O)Nc1c(F)ccc(C(=O)c2c[nH]c3ncc(-c4ccc(C)nc4Cl)cc23)c1F [Example 166, N-(3-(5-(2-chloro-6-methylpyridin-3-yl)-1H-pyrrolo[2,3-b]pyridine-3-carbonyl)-2,6-difluorophenyl)propane-1-sulfonamide]					+++ (IC50(off-target)/IC50(MKK4) > 100)	+++ (IC50(off-target)/IC50(MKK4) > 100)	+++ (IC50(off-target)/IC50(MKK4) > 100)	< 100
Nc1c(F)ccc(C(=O)c2c[nH]c3ncc(-c4ccc(Cl)cc4)cc23)c1F [Example 212, (3-amino-2,4-difluorophenyl)(5-(4-chlorophenyl)-1H-pyrrolo[2,3-b]pyridin-3-yl)methanone]					+++ (IC50(off-target)/IC50(MKK4) > 100)	◯ (3 ≥ IC50(off-target)/IC50(MKK4))	+ (10 ≥ IC50(off-target)/IC50(MKK4) > 3)	100 to 1000
